Experimental data taken from patent US20070117770A1, “Human ribosomal DNA (rDNA) and ribosomal RNA (rRNA) nucleic acids and uses thereof” (Cylene Pharmaceuticals, Inc., priority 2005, published 2007).

Key:
Assay in all cases: Protein kinase inhibition assay
Format in all cases: biochemical
Mer(h) = Mer(h) (Homo sapiens, UniProt Q12866); settings: read-out: percent residual activity of Mer(h)
Description: (§1) Certain compounds were tested for activity in protein kinase inhibition assays. All substrates were dissolved and diluted to working stocks in de-ionized water, apart from histone H1 (10× working stock in 20 mM MOPS pH 7.0), PDKtide (10× working stock in 50 mM Tris pH 7.0) ATF2 (which is typically stored at a 20× working stock in 50 mM Tris pH 7.5, 150 mM NaCl, 0.1 mM EGTA, 0.03% Brij-35, 50% glycerol, 1 mM benzamidine, 0.2 mM PMSF and 0.1% R-mercaptoethanol), KKLNRTLSFAEPG (SEQ ID NO:203) and RRRLSFAEPG (SEQ ID NO:204) (50 mM HEPES pH 7.4) and GGEEEEYFELVKKKK (SEQ ID NO:205) (20 mM MOPS pH 7.0). All kinases were pre-diluted to a 10× working concentration prior to addition into the assay. The composition of the dilution buffer for each kinase is detailed below.

NEK11(h) = NEK11(h) (Homo sapiens, UniProt Q8NG66); settings: read-out: percent residual activity of NEK11(h)
Description: as §1

SIK(h) = SIK(h) (Homo sapiens, UniProt P57059); settings: read-out: percent residual activity of SIK(h)
Description: as §1

MELK(h) = MELK(h) (Homo sapiens, UniProt Q14680); settings: read-out: percent residual activity of MELK(h)
MELK(h), sequence (Q14680 whole entry): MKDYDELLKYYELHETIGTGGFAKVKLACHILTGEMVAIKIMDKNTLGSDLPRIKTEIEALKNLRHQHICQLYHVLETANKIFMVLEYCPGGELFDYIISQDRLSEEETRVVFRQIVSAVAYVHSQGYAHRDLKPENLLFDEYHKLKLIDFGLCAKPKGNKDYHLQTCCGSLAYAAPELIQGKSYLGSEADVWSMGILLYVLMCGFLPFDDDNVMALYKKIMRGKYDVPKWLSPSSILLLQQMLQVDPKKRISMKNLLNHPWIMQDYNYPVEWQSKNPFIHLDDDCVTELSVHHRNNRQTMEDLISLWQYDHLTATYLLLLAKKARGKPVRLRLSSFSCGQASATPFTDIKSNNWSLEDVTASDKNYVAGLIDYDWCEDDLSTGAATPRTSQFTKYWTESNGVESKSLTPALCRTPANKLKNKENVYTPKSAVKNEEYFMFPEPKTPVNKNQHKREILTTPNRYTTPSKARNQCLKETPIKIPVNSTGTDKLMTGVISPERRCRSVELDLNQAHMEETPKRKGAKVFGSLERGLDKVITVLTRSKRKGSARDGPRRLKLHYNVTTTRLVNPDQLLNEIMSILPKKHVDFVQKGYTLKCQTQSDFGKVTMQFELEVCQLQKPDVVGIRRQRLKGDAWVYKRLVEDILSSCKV
Description: as §1

EphA1(h) = EphA1(h) (Homo sapiens, UniProt P21709); settings: read-out: percent residual activity of EphA1(h)
Description: as §1

BrSK2(h) = BrSK2(h) (Homo sapiens, UniProt Q8IWQ3); settings: read-out: percent residual activity of BrSK2(h)
Description: as §1

EphA8(h) = EphA8(h) (Homo sapiens, UniProt P29322); settings: read-out: percent residual activity of EphA8(h)
Description: as §1

EphA7(h) = EphA7(h) (Homo sapiens, UniProt Q15375); settings: read-out: percent residual activity of EphA7(h)
Description: as §1

CK1γ2(h) = CK1γ2(h) (Homo sapiens, UniProt P78368); settings: read-out: percent residual activity of CK1γ2(h)
Description: as §1

PAK5(h) = PAK5(h) (Homo sapiens, UniProt Q9P286); settings: read-out: percent residual activity of PAK5(h)
Description: as §1

DCAMKL2(h) = DCAMKL2(h) (Homo sapiens, UniProt Q8N568); settings: read-out: percent residual activity of DCAMKL2(h)
Description: as §1

CaMKI(h) = CaMKI(h) (Homo sapiens, UniProt Q14012); settings: read-out: percent residual activity of CaMKI(h)
Description: as §1

EphB1(h) = EphB1(h) (Homo sapiens, UniProt P54762); settings: read-out: percent residual activity of EphB1(h)
EphB1(h), sequence (P54762 18-984): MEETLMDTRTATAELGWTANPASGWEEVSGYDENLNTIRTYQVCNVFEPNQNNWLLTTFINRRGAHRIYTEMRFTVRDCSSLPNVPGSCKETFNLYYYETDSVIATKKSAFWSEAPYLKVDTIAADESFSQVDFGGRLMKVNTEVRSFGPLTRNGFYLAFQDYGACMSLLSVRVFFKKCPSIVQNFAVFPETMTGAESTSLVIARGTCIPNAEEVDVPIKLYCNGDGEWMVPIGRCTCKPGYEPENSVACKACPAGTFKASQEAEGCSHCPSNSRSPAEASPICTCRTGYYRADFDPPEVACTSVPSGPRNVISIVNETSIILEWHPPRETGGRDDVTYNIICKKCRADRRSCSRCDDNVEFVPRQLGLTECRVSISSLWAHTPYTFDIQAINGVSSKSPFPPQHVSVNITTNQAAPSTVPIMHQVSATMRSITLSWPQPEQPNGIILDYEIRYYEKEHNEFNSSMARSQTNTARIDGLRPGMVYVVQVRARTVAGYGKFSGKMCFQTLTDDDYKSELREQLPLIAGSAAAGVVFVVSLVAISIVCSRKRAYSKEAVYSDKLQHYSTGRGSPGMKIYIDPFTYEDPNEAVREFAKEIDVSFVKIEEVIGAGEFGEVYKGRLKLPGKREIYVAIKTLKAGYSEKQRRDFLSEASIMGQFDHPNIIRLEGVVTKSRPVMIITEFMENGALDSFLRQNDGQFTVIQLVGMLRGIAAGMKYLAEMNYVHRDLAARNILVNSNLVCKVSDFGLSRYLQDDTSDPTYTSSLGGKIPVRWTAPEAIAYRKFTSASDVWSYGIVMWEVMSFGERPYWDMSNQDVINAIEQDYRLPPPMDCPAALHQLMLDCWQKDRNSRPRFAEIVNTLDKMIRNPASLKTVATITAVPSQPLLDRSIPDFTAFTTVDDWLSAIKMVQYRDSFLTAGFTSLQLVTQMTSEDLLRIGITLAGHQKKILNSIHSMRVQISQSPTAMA
Description: as §1

CaMKIIγ(h) = CaMKIIγ(h) (Homo sapiens, UniProt Q13555); settings: read-out: percent residual activity of CaMKIIγ(h)
Description: as §1

GRK5(h) = GRK5(h) (Homo sapiens, UniProt P34947); settings: read-out: percent residual activity of GRK5(h)
Description: as §1

HIPK3(h) = HIPK3(h) (Homo sapiens, UniProt Q9H422); settings: read-out: percent residual activity of HIPK3(h)
Description: as §1

MLK1(h) = MLK1(h) (Homo sapiens, UniProt P80192); settings: read-out: percent residual activity of MLK1(h)
Description: as §1

BrSK1(h) = BrSK1(h) (Homo sapiens, UniProt Q8TDC3); settings: read-out: percent residual activity of BrSK1(h)
BrSK1(h), sequence (Q8TDC3 whole entry): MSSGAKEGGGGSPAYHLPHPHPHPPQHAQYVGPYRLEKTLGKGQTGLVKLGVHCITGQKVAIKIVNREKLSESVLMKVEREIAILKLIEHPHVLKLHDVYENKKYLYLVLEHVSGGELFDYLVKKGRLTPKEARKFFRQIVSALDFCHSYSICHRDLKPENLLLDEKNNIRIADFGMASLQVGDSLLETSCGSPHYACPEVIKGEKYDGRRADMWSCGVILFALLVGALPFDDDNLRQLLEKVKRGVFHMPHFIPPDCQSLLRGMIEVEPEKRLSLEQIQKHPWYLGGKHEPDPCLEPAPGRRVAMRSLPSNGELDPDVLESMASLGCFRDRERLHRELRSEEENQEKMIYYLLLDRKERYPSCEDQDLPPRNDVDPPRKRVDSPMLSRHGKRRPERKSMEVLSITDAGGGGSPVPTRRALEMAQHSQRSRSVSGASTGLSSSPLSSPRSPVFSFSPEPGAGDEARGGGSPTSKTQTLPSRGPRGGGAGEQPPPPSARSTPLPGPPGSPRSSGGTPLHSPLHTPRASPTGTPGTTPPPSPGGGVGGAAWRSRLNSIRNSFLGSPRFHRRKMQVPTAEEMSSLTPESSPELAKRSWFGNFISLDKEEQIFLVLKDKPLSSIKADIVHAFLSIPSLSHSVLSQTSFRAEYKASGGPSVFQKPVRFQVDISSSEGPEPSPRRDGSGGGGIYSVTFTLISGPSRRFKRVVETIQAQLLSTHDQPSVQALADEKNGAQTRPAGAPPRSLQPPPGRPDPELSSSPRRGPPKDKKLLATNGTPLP
Description: as §1

DMPK(h) = DMPK(h) (Homo sapiens, UniProt Q09013); settings: read-out: percent residual activity of DMPK(h)
Description: as §1

eEF-2K(h) = eEF-2K(h) (Homo sapiens, UniProt O00418); settings: read-out: percent residual activity of eEF-2K(h)
Description: as §1

SRPK2(h) = SRPK2(h) (Homo sapiens, UniProt P78362); settings: read-out: percent residual activity of SRPK2(h)
Description: as §1

LIMK1(h) = LIMK1(h) (Homo sapiens, UniProt P53667); settings: read-out: percent residual activity of LIMK1(h)
LIMK1(h), sequence (P53667 whole entry): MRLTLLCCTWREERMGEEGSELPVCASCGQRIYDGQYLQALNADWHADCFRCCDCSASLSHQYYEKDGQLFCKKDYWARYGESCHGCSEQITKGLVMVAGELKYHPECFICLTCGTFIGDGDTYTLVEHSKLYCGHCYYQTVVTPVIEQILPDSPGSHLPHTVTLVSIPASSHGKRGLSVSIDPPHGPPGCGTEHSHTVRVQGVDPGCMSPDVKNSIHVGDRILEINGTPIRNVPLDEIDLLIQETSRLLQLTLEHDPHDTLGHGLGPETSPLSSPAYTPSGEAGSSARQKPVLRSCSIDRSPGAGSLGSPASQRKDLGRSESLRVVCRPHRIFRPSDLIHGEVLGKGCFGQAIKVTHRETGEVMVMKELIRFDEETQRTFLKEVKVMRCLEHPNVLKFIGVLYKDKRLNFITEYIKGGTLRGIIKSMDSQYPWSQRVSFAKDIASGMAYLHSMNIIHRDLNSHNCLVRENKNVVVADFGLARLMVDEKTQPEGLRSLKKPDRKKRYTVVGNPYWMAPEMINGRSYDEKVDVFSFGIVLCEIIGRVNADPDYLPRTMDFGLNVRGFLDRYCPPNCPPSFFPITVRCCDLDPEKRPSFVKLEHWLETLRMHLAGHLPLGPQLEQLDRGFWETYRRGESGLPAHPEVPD
Description: as §1

SAPK2a(T106M)(h) = SAPK2a(T106M)(h) (Homo sapiens, UniProt Q16539, T106M); settings: read-out: percent residual activity of SAPK2a(T106M)(h)
Description: as §1

PTK5(h) = PTK5(h) (Homo sapiens, UniProt P42685); settings: read-out: percent residual activity of PTK5(h)
Description: as §1

PKG1α(h) = PKG1α(h) (Homo sapiens, UniProt Q13976); settings: read-out: percent residual activity of PKG1α(h)
Description: as §1

Rsk4(h) = Rsk4(h) (Homo sapiens, UniProt Q9UK32); settings: read-out: percent residual activity of Rsk4(h)
Rsk4(h), sequence (Q9UK32 whole entry): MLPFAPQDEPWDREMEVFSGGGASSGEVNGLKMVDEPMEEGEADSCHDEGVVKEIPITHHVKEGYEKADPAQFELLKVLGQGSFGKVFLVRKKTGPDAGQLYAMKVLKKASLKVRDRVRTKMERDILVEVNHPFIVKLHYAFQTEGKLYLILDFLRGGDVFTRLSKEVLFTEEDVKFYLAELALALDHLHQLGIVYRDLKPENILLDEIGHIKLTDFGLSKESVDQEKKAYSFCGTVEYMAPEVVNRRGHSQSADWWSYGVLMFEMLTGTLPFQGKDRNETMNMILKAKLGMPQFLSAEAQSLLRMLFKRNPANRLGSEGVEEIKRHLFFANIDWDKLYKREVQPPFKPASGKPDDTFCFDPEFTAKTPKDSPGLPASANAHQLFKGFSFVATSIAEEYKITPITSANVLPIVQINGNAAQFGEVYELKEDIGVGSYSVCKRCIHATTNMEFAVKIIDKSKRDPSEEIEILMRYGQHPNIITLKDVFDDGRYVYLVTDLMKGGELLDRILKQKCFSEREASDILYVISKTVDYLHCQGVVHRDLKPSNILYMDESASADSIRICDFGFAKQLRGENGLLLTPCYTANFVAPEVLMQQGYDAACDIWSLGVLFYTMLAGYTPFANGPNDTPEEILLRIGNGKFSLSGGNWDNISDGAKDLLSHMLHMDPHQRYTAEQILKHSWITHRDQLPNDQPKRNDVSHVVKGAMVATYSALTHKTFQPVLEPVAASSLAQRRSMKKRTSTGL
Description: as §1

CaMKIIδ(h) = CaMKIIδ(h) (Homo sapiens, UniProt Q13557); settings: read-out: percent residual activity of CaMKIIδ(h)
Description: as §1

Mer(h), sequence (Q12866 21-999): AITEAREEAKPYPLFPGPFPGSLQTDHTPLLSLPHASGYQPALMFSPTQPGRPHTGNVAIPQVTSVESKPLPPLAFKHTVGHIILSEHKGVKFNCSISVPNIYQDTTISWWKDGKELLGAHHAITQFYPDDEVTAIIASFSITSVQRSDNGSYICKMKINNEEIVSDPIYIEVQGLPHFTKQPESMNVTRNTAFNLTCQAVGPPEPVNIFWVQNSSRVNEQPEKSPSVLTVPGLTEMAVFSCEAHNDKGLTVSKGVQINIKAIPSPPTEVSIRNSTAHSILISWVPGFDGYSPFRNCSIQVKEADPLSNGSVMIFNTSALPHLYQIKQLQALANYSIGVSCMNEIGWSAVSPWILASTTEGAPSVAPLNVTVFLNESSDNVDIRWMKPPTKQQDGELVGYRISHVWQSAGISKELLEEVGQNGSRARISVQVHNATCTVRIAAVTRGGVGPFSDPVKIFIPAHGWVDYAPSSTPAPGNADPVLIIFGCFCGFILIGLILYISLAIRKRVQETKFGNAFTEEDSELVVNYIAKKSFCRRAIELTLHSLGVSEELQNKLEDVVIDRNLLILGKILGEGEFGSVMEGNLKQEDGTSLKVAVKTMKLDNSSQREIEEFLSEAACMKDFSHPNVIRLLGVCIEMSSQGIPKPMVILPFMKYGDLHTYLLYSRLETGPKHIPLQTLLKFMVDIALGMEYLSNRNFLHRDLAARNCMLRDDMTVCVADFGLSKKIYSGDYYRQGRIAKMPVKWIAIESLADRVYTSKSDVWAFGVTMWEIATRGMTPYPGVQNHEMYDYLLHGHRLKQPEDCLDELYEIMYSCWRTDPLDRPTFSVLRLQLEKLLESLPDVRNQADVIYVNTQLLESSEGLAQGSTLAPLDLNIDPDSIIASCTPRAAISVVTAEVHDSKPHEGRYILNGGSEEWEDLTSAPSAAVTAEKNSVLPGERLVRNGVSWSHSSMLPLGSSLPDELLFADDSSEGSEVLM

| SMILES | remaining activity at 2.5 µM (Mer(h)) [%] | remaining activity at 2.5 µM (NEK11(h)) [%] | remaining activity at 2.5 µM (SIK(h)) [%] | remaining activity at 2.5 µM (MELK(h)) [%] | remaining activity at 2.5 µM (EphA1(h)) [%] | remaining activity at 2.5 µM (BrSK2(h)) [%] | remaining activity at 2.5 µM (EphA8(h)) [%] | remaining activity at 2.5 µM (EphA7(h)) [%] | remaining activity at 2.5 µM (CK1γ2(h)) [%] | remaining activity at 2.5 µM (PAK5(h)) [%] | remaining activity at 2.5 µM (DCAMKL2(h)) [%] | remaining activity at 2.5 µM (CaMKI(h)) [%] | remaining activity at 2.5 µM (EphB1(h)) [%] | remaining activity at 2.5 µM (CaMKIIγ(h)) [%] | remaining activity at 2.5 µM (GRK5(h)) [%] | remaining activity at 2.5 µM (HIPK3(h)) [%] | remaining activity at 2.5 µM (MLK1(h)) [%] | remaining activity at 2.5 µM (BrSK1(h)) [%] | remaining activity at 2.5 µM (DMPK(h)) [%] | remaining activity at 2.5 µM (eEF-2K(h)) [%] | further results |
| --- | --- | --- | --- | --- | --- | --- | --- | --- | --- | --- | --- | --- | --- | --- | --- | --- | --- | --- | --- | --- | --- |
| CN1CCCC1CCNC(=O)c1cn2c3c(c(N4CCC(c5cnccn5)C4)c(F)cc3c1=O)Oc1cc3ccccc3cc1-2 (stereo not drawn) [Compound A-1] | 111 | 70 | 79 | 40 | 69 | 96 | 100 | 109 | 96 | 103 | 48 | 95 | 125 | 110 | 95 | 102 | 85 | 99 | 92 | 96 | remaining activity at 2.5 µM (SRPK2(h)): 88%; remaining activity at 2.5 µM (LIMK1(h)): 97%; remaining activity at 2.5 µM (SAPK2a(T106M)(h)): 94%; remaining activity at 2.5 µM (PTK5(h)): 116%; remaining activity at 2.5 µM (PKG1α(h)): 57%; remaining activity at 2.5 µM (Rsk4(h)): 69%; remaining activity at 2.5 µM (CaMKIIδ(h)): 88% |
| CC(=O)N1CCN(c2ccc3c(=O)c(C(=O)NCCN4CCCC4)c4n(C)c5ccccc5n4c3n2)CC1 [Compound B-1] | 125 | 107 | 94 | 94 | 96 | 96 | 100 | 100 | 103 | 101 | 111 | 106 | 75 | 104 | 99 | 97 | 86 | 107 | 105 | 98 | remaining activity at 2.5 µM (SRPK2(h)): 88%; remaining activity at 2.5 µM (LIMK1(h)): 100%; remaining activity at 2.5 µM (SAPK2a(T106M)(h)): 99%; remaining activity at 2.5 µM (PTK5(h)): 107%; remaining activity at 2.5 µM (PKG1α(h)): 101%; remaining activity at 2.5 µM (Rsk4(h)): 94%; remaining activity at 2.5 µM (CaMKIIδ(h)): 96% |
